In patent US20140243415A1, “COMPOUNDS INHIBITING GALECTIN-1 EXPRESSION, CANCER CELL PROLIFERATION, INVASION, AND TUMORIGENESIS” (ONCOETHIX SA, priority 2011, published 2014):

How the values were obtained:
[1] = test system: DLD-1TR21 colon cancer cells; test: Antiproliferative effects, SNAIL-inducible model; type: cell-based, human; conditions: SNAIL-inducible DLD-1TR21
From the text: FIG. 2. Epithelial-to-mesenchymal differentiation and OTX-008 sensitivity. A—Correlations between galectin-1 (LGALS1) and vimentin, E-cadherin (CDH1) and N-cadherin (CDH2) relative mRNA expression. B—Correlations between OTX-008 IC50s and vimentin, E-cadherin (CDH1) and N-cadherin (CDH2) relative mRNA expression. C—Antiproliferative effects of OTX-008 in epithelial COLO205-S and mesenchymal COLO205-R colon cancer cells. D—Antiproliferative effects of OTX-008 in SNAIL-inducible colon cancer cell lines. E—Antiproliferative effects of OTX-008 in shWISP breast cancer cell lines.
Cell survival was determined using the MTT assay (3-[4,5-dimethylthiazol-2-yl]-2,5-diphenyltetrazolium bromide; Sigma, Saint-Quentin Fallavier, France). The conversion of yellow water-soluble tetrazolium MTT into purple insoluble formazan is catalyzed by mitochondrial dehydrogenases and used to estimate the number of viable cells. In brief, cells were seeded in 96-well tissue culture plates at a density of 2×10^3 cells/well. […] After incubation, the supernatant was discarded, insoluble formazan precipitates were dissolved in 0.1 ml of DMSO and the absorbance was measured at 560 nm by use of a microplate reader (Thermo, France). […] IC50's were determined as the halves of maximal inhibitory drug concentration for each cell line. […]

[2] = test system: GAL1 mRNA; test: Real-time RT-PCR of GAL1 mRNA; type: cell-based, human; conditions: OTX-008 exposed cancer cells
From the text: The theoretical and practical aspects of real-time quantitative RT-PCR using the ABI Prism 7900 Sequence Detection System (Perkin-Elmer Applied Biosystems, Foster City, Calif., USA) have been described in detail elsewhere Results were expressed as n-fold differences in target gene expression relative to the TBP gene (an endogenous RNA control) and relative to a calibrator (1× sample), consisting of the cell line sample from our tested series that contained the smallest amount of target gene mRNA. Experiments were performed in duplicate.

[3] = test system: p-AKT; test: Western blot of signaling in SQ20B cells; type: cell-based, human; conditions: 3 μM OTX-008, 10 min to 24 h
Protocol: (§1) FIG. 3. Effects of OTX-008 on galectin-1 expression and localization. A—Western Blot of galectin-1 on SQ20B cells treated with 3 μM OTX-008 for 24 h, 48 h and 72 h. B and C—Immunofluorescence of galectin-1 on SQ20B cells treated with 3 μM OTX-008 for 24 and 48 h. B—OTX-008 treatment decreases galectin-1 immunostaining in SQ20B cells. C—Galectin-1 translocates into the nucleus after OTX-008 exposure. D—Western Blot of p-AKTser473, AKT, p-S6, p-ERK1/2, ERK and p-PKCα in SQ20B cells treated with 3 μM OTX-008 for 10 min, 1 h, 2 h, 5 h and 24 h.
(§2) Cells were lysed in buffer containing 50 mM HEPES (pH 7.6), 150 mM NaCl, 1% Triton X-100, 2 mM sodium vanadate, 100 mM NaF, and 0.4 mg/ml phenylmethylsulfonyl fluoride. Equal amounts of protein (30 μg/lane) were subjected to SDS-PAGE and transferred to nitrocellulose membranes. Membranes were blocked with 5% milk in 0.05% Tween 20/phosphate-buffered saline and then incubated with the primary antibody overnight. Membranes were then washed and incubated with the secondary antibody conjugated to horseradish peroxidase. Bands were visualized by using the enhanced chemiluminescence Western blotting detection system. Densitometric analysis was performed under conditions that yielded a linear response. The following antibodies were used: anti-p-cdc2 (tyr15), anti-p-wee1 (ser642), anti-p-p44/42 MAPK (thr202/tyr204), anti-p44/42, anti-p-AKT (ser473), anti-AKT, anti-p-S6 (ser235/236) (Cell Signaling, Saint Quentin Yvelines, France), anti-p-PKCα (ser657) (BD Biosciences, Le-Pont-de-Claix, France) and anti-galectin-1 (Abcam, Cambridge, Mass., USA). All antibodies were used at a 1:1000 dilution.
(§3) Intracytoplasmic galectin-1 was previously shown to stabilize intracellular GTP-Ras conformation, facilitating Ras downstream signaling. Signaling events following OTX-008 exposure in SQ20B cells displaying no EGFR, K-Ras, and B-Raf mutation were investigated (FIG. 5A).

[4] = test system: p-ERK1/2; test: Western blot of signaling in SQ20B cells; type: cell-based, human; conditions: 3 μM OTX-008, 10 min to 24 h
Protocol: as §1, §2, §3

[5] = test system: p-S6; test: Western blot of signaling in SQ20B cells; type: cell-based, human; conditions: 3 μM OTX-008, 10 min to 24 h
Protocol: as §1, §2, §3

[6] = test system: endothelial cell; conditions: endothelial cell proliferation, migration, chick embryo chorioallantoic membrane assays; cited from earlier work

CN(C)CCNC(=O)COc1c2cccc1Cc1cccc(c1OCC(=O)NCCN(C)C)Cc1cccc(c1OCC(=O)NCCN(C)C)Cc1cccc(c1OCC(=O)NCCN(C)C)C2 [OTX-008]
effect of SNAIL induction on sensitivity [1]: no impact on sensitivity | GAL1 mRNA expression [2]: No change | AKT ser473 phosphorylation [3]: transient activation of AKT^s473 followed by a complete and sustained inhibition of p-AKT | p-ERK1/2 activity [4]: progressively but sustainably inhibited p-ERK1/2 activity | p-S6 [5]: complete and sustained inhibition | angiogenesis inhibition in vitro [6]: potent angiogenesis inhibitor
